# Species on record: Rattus norvegicus
# Assay: Open TG-GATES - Regimen: Daily Repeat
# Type: toxicity, organism-based, Sprague-Dawley
# Set-up: regimen Daily Repeat, gender Male, age 6 weeks
# Settings: in vivo, po, route gavage; for Bas / Eos / Fbg / Ht / Lym / MCH / MCHC / MCV / Mono / Neu / PT / Plat / RBC / Ret / WBC / APTT: tissue Blood; for KIDNEY_L / KIDNEY_R / KIDNEY_TOTAL: tissue Kidney; for ALP / ALT / AST / CRE / Ca / Cl / DBIL / GLC / IP / K / LDH / RALB / TBIL / TC / TG / TP / gamma-GTP: tissue Plasma
# [1] = 0 mg/kg, 72 h, dose level Control, time 3 day
# [2] = 0 mg/kg, […], dose level Control, time 7 day
# [3] = 0 mg/kg, […], dose level Control, time 14 day
# [4] = 0 mg/kg, […], dose level Control, time 28 day
# [5] = 10 mg/kg, 72 h, dose level Low, time 3 day
# [6] = 10 mg/kg, […], dose level Low, time 7 day
# [7] = 10 mg/kg, […], dose level Low, time 14 day
# [8] = 10 mg/kg, […], dose level Low, time 28 day
smiles,measurement,setting,value
Cn1c(=O)c2c(ncn2C)n(C)c1=O [CAFFEINE],TERMINAL_BW,[1],229.3 g
same,Bas,[1],0%
same,Eos,[1],0.6%
same,Fbg,[1],311 mg/dL
same,Ht,[1],39.9%
same,Lym,[1],81.2%
same,MCH,[1],21.1 pg
same,MCHC,[1],33.1%
same,MCV,[1],63.7 fL
same,Mono,[1],2%
same,Neu,[1],15.6%
same,PT,[1],15.7 s
same,Plat,[1],113.5 x10_4/uL
same,RBC,[1],627 x10_4/ul
same,Ret,[1],6.4%
same,WBC,[1],79.7 x10_2/uL
same,KIDNEY_L,[1],1 g
same,KIDNEY_R,[1],1 g
same,KIDNEY_TOTAL,[1],2 g
same,ALP,[1],1435.4 IU/L
same,ALT,[1],51.2 IU/L
same,AST,[1],77 IU/L
same,CRE,[1],0.2 mg/dL
same,Ca,[1],10.9 mg/dL
same,Cl,[1],108.2 meq/L
same,DBIL,[1],0 mg/dL
same,GLC,[1],187.2 mg/dL
same,IP,[1],7.9 mg/dL
same,K,[1],4.1 meq/L
same,LDH,[1],159 IU/L
same,RALB,[1],3 g/dL
same,TBIL,[1],0.004 mg/dL
same,TC,[1],69.2 mg/dL
same,TG,[1],83.4 mg/dL
same,TP,[1],5.6 g/dL
same,gamma-GTP,[1],1.4 IU/L
same,TERMINAL_BW,[2],259.6 g
same,TERMINAL_BW,[3],312 g
same,TERMINAL_BW,[4],388.1 g
same,APTT,[2],22.5 s
same,Bas,[2],0%
same,Eos,[2],0.8%
same,Fbg,[2],342.6 mg/dL
same,Ht,[2],40.7%
same,Lym,[2],79%
same,MCH,[2],21.2 pg
same,MCHC,[2],33.6%
same,MCV,[2],63.2 fL
same,Mono,[2],1.8%
same,Neu,[2],17.4%
same,PT,[2],15.4 s
same,Plat,[2],116.2 x10_4/uL
same,RBC,[2],644.8 x10_4/ul
same,Ret,[2],6%
same,WBC,[2],120.4 x10_2/uL
same,APTT,[3],22.6 s
same,Bas,[3],0%
same,Eos,[3],1%
same,Fbg,[3],311.4 mg/dL
same,Ht,[3],41.1%
same,Lym,[3],84.2%
same,MCHC,[3],34.2%
same,MCV,[3],59.8 fL
same,Mono,[3],2.4%
same,Neu,[3],11.4%
same,PT,[3],15.5 s
same,Plat,[3],117.4 x10_4/uL
same,RBC,[3],688 x10_4/ul
same,Ret,[3],4.3%
same,WBC,[3],117.6 x10_2/uL
same,Bas,[4],0%
same,Eos,[4],1.2%
same,Fbg,[4],317 mg/dL
same,Ht,[4],43.6%
same,Lym,[4],81%
same,MCH,[4],19.4 pg
same,MCHC,[4],34.6%
same,MCV,[4],56.1 fL
same,Mono,[4],1.6%
same,PT,[4],15.7 s
same,Plat,[4],102.1 x10_4/uL
same,RBC,[4],778.2 x10_4/ul
same,Ret,[4],2.6%
same,WBC,[4],103.3 x10_2/uL
same,KIDNEY_L,[2],1.1 g
same,KIDNEY_R,[2],1.1 g
same,KIDNEY_TOTAL,[2],2.3 g
same,KIDNEY_L,[3],1.2 g
same,KIDNEY_R,[3],1.2 g
same,KIDNEY_TOTAL,[3],2.4 g
same,KIDNEY_L,[4],1.4 g
same,KIDNEY_R,[4],1.5 g
same,KIDNEY_TOTAL,[4],2.9 g
same,ALP,[2],1993.2 IU/L
same,ALT,[2],46 IU/L
same,AST,[2],70.6 IU/L
same,CRE,[2],0.1 mg/dL
same,Ca,[2],10.5 mg/dL
same,Cl,[2],106 meq/L
same,DBIL,[2],0 mg/dL
same,GLC,[2],197.8 mg/dL
same,IP,[2],7.7 mg/dL
same,K,[2],4.7 meq/L
same,LDH,[2],185.6 IU/L
same,RALB,[2],3 g/dL
same,TBIL,[2],0 mg/dL
same,TC,[2],76.6 mg/dL
same,TG,[2],118.6 mg/dL
same,TP,[2],5.5 g/dL
same,gamma-GTP,[2],1.8 IU/L
same,ALP,[3],1572.4 IU/L
same,ALT,[3],40.8 IU/L
same,AST,[3],68.4 IU/L
same,CRE,[3],0.2 mg/dL
same,Ca,[3],10.5 mg/dL
same,Cl,[3],104.6 meq/L
same,DBIL,[3],0 mg/dL
same,GLC,[3],216 mg/dL
same,IP,[3],7.5 mg/dL
same,K,[3],4.5 meq/L
same,LDH,[3],181 IU/L
same,RALB,[3],3 g/dL
same,TBIL,[3],0 mg/dL
same,TG,[3],150.2 mg/dL
same,TP,[3],5.8 g/dL
same,gamma-GTP,[3],2.4 IU/L
same,ALP,[4],1038 IU/L
same,ALT,[4],43.6 IU/L
same,AST,[4],66.6 IU/L
same,CRE,[4],0.2 mg/dL
same,Ca,[4],10.4 mg/dL
same,Cl,[4],105 meq/L
same,DBIL,[4],0 mg/dL
same,GLC,[4],197.4 mg/dL
same,IP,[4],6.6 mg/dL
same,K,[4],4.1 meq/L
same,LDH,[4],146 IU/L
same,RALB,[4],3.1 g/dL
same,TBIL,[4],0.004 mg/dL
same,TC,[4],71 mg/dL
same,TG,[4],138.8 mg/dL
same,TP,[4],6.1 g/dL
same,gamma-GTP,[4],2.2 IU/L
same,TERMINAL_BW,[5],226.8 g
same,APTT,[5],21.4 s
same,Bas,[5],0%
same,Eos,[5],1%
same,Fbg,[5],307.2 mg/dL
same,Ht,[5],38.9%
same,Lym,[5],80.2%
same,MCH,[5],20.9 pg
same,MCHC,[5],33.2%
same,MCV,[5],62.9 fL
same,Mono,[5],1.8%
same,Neu,[5],16.4%
same,PT,[5],15.5 s
same,Plat,[5],118.8 x10_4/uL
same,RBC,[5],618.6 x10_4/ul
same,Ret,[5],5.7%
same,WBC,[5],73.5 x10_2/uL
same,KIDNEY_L,[5],1 g
same,KIDNEY_R,[5],1 g
same,KIDNEY_TOTAL,[5],2 g
same,ALP,[5],1442.2 IU/L
same,ALT,[5],43.8 IU/L
same,AST,[5],70.8 IU/L
same,CRE,[5],0.2 mg/dL
same,Ca,[5],10.8 mg/dL
same,Cl,[5],107.6 meq/L
same,DBIL,[5],0 mg/dL
same,GLC,[5],183.2 mg/dL
same,IP,[5],7.5 mg/dL
same,K,[5],4.2 meq/L
same,LDH,[5],154.6 IU/L
same,RALB,[5],3 g/dL
same,TBIL,[5],0.004 mg/dL
same,TC,[5],75.8 mg/dL
same,TG,[5],87.8 mg/dL
same,TP,[5],5.6 g/dL
same,gamma-GTP,[5],1.2 IU/L
same,TERMINAL_BW,[6],259.9 g
same,TERMINAL_BW,[7],300.9 g
same,TERMINAL_BW,[8],396.8 g
same,APTT,[6],22.8 s
same,Bas,[6],0%
same,Eos,[6],1%
same,Fbg,[6],316 mg/dL
same,Ht,[6],40.6%
same,Lym,[6],79%
same,MCH,[6],20.9 pg
same,MCHC,[6],33.3%
same,MCV,[6],62.7 fL
same,Mono,[6],2%
same,Neu,[6],16.8%
same,PT,[6],15.3 s
same,Plat,[6],112.2 x10_4/uL
same,RBC,[6],648.4 x10_4/ul
same,Ret,[6],6.1%
same,WBC,[6],106.3 x10_2/uL
same,APTT,[7],23.2 s
same,Bas,[7],0%
same,Eos,[7],0.8%
same,Fbg,[7],306.2 mg/dL
same,Ht,[7],41.1%
same,Lym,[7],81.2%
same,MCH,[7],20.1 pg
same,MCHC,[7],34%
same,MCV,[7],59.2 fL
same,Mono,[7],1.4%
same,Neu,[7],15.4%
same,PT,[7],15.1 s
same,Plat,[7],112.6 x10_4/uL
same,RBC,[7],693.6 x10_4/ul
same,Ret,[7],4.5%
same,WBC,[7],105.4 x10_2/uL
same,APTT,[8],25.8 s
same,Bas,[8],0%
same,Eos,[8],0.6%
same,Fbg,[8],309.2 mg/dL
same,Ht,[8],43.1%
same,Lym,[8],84%
same,MCHC,[8],34.5%
same,MCV,[8],54.7 fL
same,Mono,[8],1.6%
same,Plat,[8],99.3 x10_4/uL
same,RBC,[8],788.8 x10_4/ul
same,Ret,[8],2.5%
same,WBC,[8],105.2 x10_2/uL
same,KIDNEY_L,[6],1.1 g
same,KIDNEY_R,[6],1.1 g
same,KIDNEY_TOTAL,[6],2.2 g
same,KIDNEY_L,[7],1.2 g
same,KIDNEY_R,[7],1.2 g
same,KIDNEY_TOTAL,[7],2.5 g
same,KIDNEY_L,[8],1.5 g
same,KIDNEY_R,[8],1.5 g
same,KIDNEY_TOTAL,[8],3 g
same,ALP,[6],1552.6 IU/L
same,ALT,[6],47.6 IU/L
same,AST,[6],75.2 IU/L
same,CRE,[6],0.2 mg/dL
same,Ca,[6],10.5 mg/dL
same,Cl,[6],106.4 meq/L
same,DBIL,[6],0 mg/dL
same,GLC,[6],192.8 mg/dL
same,IP,[6],7.8 mg/dL
same,K,[6],4.4 meq/L
same,LDH,[6],179.4 IU/L
same,RALB,[6],3 g/dL
same,TBIL,[6],0.002 mg/dL
same,TC,[6],73.4 mg/dL
same,TG,[6],102.4 mg/dL
same,TP,[6],5.5 g/dL
same,gamma-GTP,[6],2.4 IU/L
same,ALP,[7],1475.8 IU/L
same,AST,[7],71.8 IU/L
same,CRE,[7],0.2 mg/dL
same,Ca,[7],10.6 mg/dL
same,Cl,[7],105.8 meq/L
same,DBIL,[7],0 mg/dL
same,GLC,[7],194 mg/dL
same,IP,[7],6.8 mg/dL
same,K,[7],4.2 meq/L
same,LDH,[7],160.2 IU/L
same,RALB,[7],3 g/dL
same,TBIL,[7],0.004 mg/dL
same,TC,[7],68.4 mg/dL
same,TG,[7],146.6 mg/dL
same,TP,[7],5.8 g/dL
same,gamma-GTP,[7],2.2 IU/L
same,ALP,[8],1054 IU/L
same,ALT,[8],43 IU/L
same,AST,[8],66.2 IU/L
same,CRE,[8],0.2 mg/dL
same,Ca,[8],10.4 mg/dL
same,Cl,[8],105.8 meq/L
same,DBIL,[8],0 mg/dL
same,GLC,[8],204.4 mg/dL
same,IP,[8],6.7 mg/dL
same,K,[8],4 meq/L
same,LDH,[8],153 IU/L
same,RALB,[8],3.2 g/dL
same,TBIL,[8],0.004 mg/dL
same,TC,[8],73.6 mg/dL
same,TG,[8],147.6 mg/dL

# Reference: ChEMBL document CHEMBL3885861, “Open TG-GATES”
